Data: ChEMBL document CHEMBL1909046, “DrugMatrix in vitro pharmacology data”

Experiments:
Leukotriene C4 synthase = molecular target: T1, Leukotriene C4 synthase (Cavia porcellus, UniProt A6XA80); assay: biochemical; type: tissue-based, Lung;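 note: enzyme inhibition assay of leukotriene C4 synthase, using LTA4 as the substrate; in other assays of this panel Not Active means under 50% inhibition at 10 µM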
T1 sequence (A6XA80 whole entry): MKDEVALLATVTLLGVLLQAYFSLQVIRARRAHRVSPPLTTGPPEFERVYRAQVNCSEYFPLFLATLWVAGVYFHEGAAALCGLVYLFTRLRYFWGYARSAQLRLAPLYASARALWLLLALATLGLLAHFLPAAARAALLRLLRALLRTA

[1] = DRUGMATRIX: Leukotriene, BLT (LTB4) radioligand binding (ligand: [3H]LTB4); type: cell membranes, Membrane; details: u-937; Not Active = under 50% inhibition at 10 µM
Adenosine receptor A3 = molecular target: T2, Adenosine receptor A3 (Homo sapiens, UniProt P0DMS8); type: cell membranes, CHO-K1, Membrane; details: cho-k1;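 note: radioligand binding assay with AB-MECA serving as the labeled ligand; in other assays of this panel Not Active means under 50% inhibition at 10 µM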
T2 sequence (P0DMS8 whole entry): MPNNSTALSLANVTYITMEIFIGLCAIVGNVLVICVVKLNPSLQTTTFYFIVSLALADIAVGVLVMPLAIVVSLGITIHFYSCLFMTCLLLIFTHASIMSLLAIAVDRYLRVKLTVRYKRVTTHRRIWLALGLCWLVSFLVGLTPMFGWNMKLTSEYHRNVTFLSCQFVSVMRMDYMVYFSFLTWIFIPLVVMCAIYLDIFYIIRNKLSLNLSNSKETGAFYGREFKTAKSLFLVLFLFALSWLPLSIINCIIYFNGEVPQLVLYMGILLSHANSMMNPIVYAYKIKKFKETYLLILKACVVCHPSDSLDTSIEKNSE

Glycine receptor = Glycine receptor (Rattus norvegicus, UniProt P22771+P24524+P07727+P20781); type: cell membranes, Wistar, Spinal cord, Membrane; note: in other assays of this panel Not Active means under 50% inhibition at 10 µM
D(4) dopamine receptor = molecular target: T3, D(4) dopamine receptor (Homo sapiens, UniProt P21917); assay: DRUGMATRIX: Dopamine D4.2 radioligand binding (ligand: [3H] Spiperone); type: cell membranes, CHO-K1, Membrane; details: cho-k1; Not Active = under 50% inhibition at 10 µM
T3 sequence (P21917 whole entry): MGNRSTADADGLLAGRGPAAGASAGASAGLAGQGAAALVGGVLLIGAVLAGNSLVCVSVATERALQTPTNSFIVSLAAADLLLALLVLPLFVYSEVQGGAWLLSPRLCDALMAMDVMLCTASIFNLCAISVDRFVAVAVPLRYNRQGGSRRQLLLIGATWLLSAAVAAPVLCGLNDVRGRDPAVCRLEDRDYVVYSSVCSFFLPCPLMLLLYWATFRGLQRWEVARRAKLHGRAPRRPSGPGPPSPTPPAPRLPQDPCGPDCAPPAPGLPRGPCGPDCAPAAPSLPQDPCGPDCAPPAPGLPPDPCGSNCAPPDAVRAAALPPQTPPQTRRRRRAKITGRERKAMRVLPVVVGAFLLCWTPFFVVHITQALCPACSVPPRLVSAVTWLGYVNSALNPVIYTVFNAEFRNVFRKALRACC

Histamine H2 receptor = Histamine H2 receptor (Homo sapiens, UniProt P25021); type: cell membranes, CHO-K1, Membrane; details: cho-k1; note: in other assays of this panel Not Active means under 50% inhibition at 10 µM
[2] = molecular target: cGMP-specific 3',5'-cyclic phosphodiesterase (Homo sapiens, UniProt O76074); assay: DRUGMATRIX: Phosphodiesterase PDE5 enzyme inhibition (substrate: [3H]cGMP + cGMP); type: tissue-based, Platelet; details: platelet; Not Active = under 50% inhibition at 10 µM
Vasopressin V1a receptor = Vasopressin V1a receptor (Homo sapiens, UniProt P37288); type: cell membranes, Membrane; details: hek293; note: in other assays of this panel Not Active means under 50% inhibition at 10 µM
[3] = molecular target: T4, Alpha-2A adrenergic receptor (Homo sapiens, UniProt P08913); type: cell membranes, Sf9, Membrane; details: sf9; note: in other assays of this panel Not Active means under 50% inhibition at 10 µM
T4 sequence (P08913 whole entry): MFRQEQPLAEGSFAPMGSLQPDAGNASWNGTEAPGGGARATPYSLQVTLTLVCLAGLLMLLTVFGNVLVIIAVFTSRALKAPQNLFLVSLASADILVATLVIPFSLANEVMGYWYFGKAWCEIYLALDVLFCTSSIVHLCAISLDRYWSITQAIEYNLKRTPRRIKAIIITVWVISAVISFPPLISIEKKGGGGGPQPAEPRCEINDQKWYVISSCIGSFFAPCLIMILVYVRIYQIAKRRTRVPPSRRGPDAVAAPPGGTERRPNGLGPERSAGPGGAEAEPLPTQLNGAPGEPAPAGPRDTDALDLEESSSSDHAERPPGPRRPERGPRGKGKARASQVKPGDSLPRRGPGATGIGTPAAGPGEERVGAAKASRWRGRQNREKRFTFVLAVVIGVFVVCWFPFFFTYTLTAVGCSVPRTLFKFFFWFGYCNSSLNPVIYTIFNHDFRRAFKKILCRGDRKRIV

[4] = DRUGMATRIX: Glutamate, Kainate radioligand binding (ligand: [3H] Kainic acid); type: cell membranes, Rattus norvegicus, Wistar, Brain, Membrane; details: Not Active = under 50% inhibition at 10 µM

Histamine H2 receptor, sequence (P25021 whole entry): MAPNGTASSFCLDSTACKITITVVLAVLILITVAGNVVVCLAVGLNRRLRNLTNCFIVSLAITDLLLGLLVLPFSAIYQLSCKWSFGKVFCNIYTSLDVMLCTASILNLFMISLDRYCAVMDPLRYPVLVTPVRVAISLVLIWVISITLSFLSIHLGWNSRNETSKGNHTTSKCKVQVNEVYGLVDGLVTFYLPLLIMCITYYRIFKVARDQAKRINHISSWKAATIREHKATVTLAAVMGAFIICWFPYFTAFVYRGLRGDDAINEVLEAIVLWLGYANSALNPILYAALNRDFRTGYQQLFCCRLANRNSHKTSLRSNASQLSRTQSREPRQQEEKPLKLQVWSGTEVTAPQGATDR
Vasopressin V1a receptor, sequence (P37288 whole entry): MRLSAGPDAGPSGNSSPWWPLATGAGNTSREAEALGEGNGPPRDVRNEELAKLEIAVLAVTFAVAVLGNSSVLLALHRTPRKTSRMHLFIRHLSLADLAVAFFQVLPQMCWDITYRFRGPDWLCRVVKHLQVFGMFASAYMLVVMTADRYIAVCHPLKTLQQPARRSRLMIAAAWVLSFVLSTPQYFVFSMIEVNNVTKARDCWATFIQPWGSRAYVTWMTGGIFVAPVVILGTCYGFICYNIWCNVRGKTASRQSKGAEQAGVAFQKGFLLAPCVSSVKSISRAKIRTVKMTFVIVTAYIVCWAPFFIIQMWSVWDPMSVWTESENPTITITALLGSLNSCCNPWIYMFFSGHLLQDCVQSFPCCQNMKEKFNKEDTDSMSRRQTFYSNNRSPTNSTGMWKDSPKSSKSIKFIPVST

| Compound | IC50 (Leukotriene C4 synthase) | IC50 [1] | Ki [1] | IC50 (Adenosine receptor A3) | IC50 (Glycine receptor) | IC50 (D(4) dopamine receptor) | IC50 (Histamine H2 receptor) | IC50 [2] | IC50 (Vasopressin V1a receptor) | IC50 [3] | IC50 [4] | Ki [4] | further results |
| --- | --- | --- | --- | --- | --- | --- | --- | --- | --- | --- | --- | --- | --- |
| Cc1cc(NS(=O)(=O)c2ccc(N)cc2)no1 [SULFAMETHOXAZOLE] | Not Active | Not Active | Not Active | Not Active | Not Active | Not Active | Not Active | Not Active | Not Active | Not Active | Not Active | Not Active |  |
| COc1c(C)c2c(c(O)c1C/C=C(\C)CCC(=O)OCCN1CCOCC1)C(=O)OC2 [MYCOPHENOLATE MOFETIL] | Not Active | Not Active | Not Active | Not Active | Not Active | Not Active | Not Active | Not Active | Not Active | Not Active | Not Active | Not Active |  |
| Nc1ccc(S(=O)(=O)Nc2ccnn2-c2ccccc2)cc1 [SULFAPHENAZOLE] | Not Active | Not Active | Not Active | Not Active | Not Active | Not Active | Not Active | Not Active | Not Active | Not Active | Not Active | Not Active |  |
| CC1CN(c2cc3c(cc2F)c(=O)c(C(=O)O)cn3-c2ccc(F)cc2F)CCN1 (centres undefined) [TEMAFLOXACIN] | Not Active | Not Active | Not Active | Not Active | Not Active | Not Active | Not Active | Not Active | Not Active | Not Active | Not Active | Not Active |  |
| IVERMECTIN | Not Active | Not Active | Not Active |  |  | Not Active | Not Active | Not Active | Not Active |  | Not Active | Not Active | Ki (Leukotriene C4 synthase): Not Active; IC50 (Adenosine receptor A3; read-out: IC50): 512 nM; Ki (Adenosine receptor A3; read-out: Ki): 289 nM; IC50 (Glycine receptor; read-out: IC50): 375 nM; Ki (Glycine receptor; read-out: Ki): 212 nM; Ki (D(4) dopamine receptor): Not Active; Ki (Histamine H2 receptor): Not Active; Ki [2]: Not Active; Ki (Vasopressin V1a receptor): Not Active; IC50 ([3]; read-out: IC50): 5840 nM; Ki ([3]; read-out: Ki): 2190 nM |
| CN[C@H](CC(C)C)C(=O)N[C@H]1C(=O)N[C@@H](CC(N)=O)C(=O)N[C@H]2C(=O)N[C@H]3C(=O)N[C@H](C(=O)N[C@H](C(=O)O)c4cc(O)cc(O)c4-c4cc3ccc4O)[C@H](O)c3ccc(c(Cl)c3)Oc3cc2cc(c3O[C@@H]2O[C@H](CO)[C@@H](O)[C@H](O)[C@H]2O[C@H]2C[C@](C)(N)[C@H](O)[C@H](C)O2)Oc2ccc(cc2Cl)[C@H]1O [VANCOMYCIN] | Not Active | Not Active | Not Active | Not Active | Not Active | Not Active | Not Active | Not Active | Not Active | Not Active | Not Active | Not Active |  |
| CC(=O)S[C@@H]1CC2=CC(=O)CC[C@]2(C)[C@H]2CC[C@@]3(C)[C@@H](CC[C@@]34CCC(=O)O4)[C@H]12 [SPIRONOLACTONE] | Not Active | Not Active | Not Active | Not Active | Not Active | Not Active | Not Active | Not Active | Not Active | Not Active | Not Active | Not Active |  |
| COc1cc(C(=O)NC2CCCNC2)cc(OC)c1OC (centres undefined) [TROXIPIDE] | Not Active | Not Active | Not Active | Not Active | Not Active | Not Active | Not Active | Not Active | Not Active | Not Active | Not Active | Not Active |  |
| Cc1ccc(C(=O)C(C)CN2CCCCC2)cc1 (centres undefined) [TOLPERISONE] | Not Active | Not Active | Not Active | Not Active | Not Active | Not Active | Not Active | Not Active | Not Active | Not Active | Not Active | Not Active |  |
| NC(=O)c1ccccc1O [SALICYLAMIDE] | Not Active | Not Active | Not Active | Not Active | Not Active | Not Active | Not Active | Not Active | Not Active | Not Active | Not Active | Not Active |  |
| CCC[C@@H]1C[C@@H](C(=O)N[C@@H]([C@H]2O[C@H](SC)[C@H](O)[C@@H](O)[C@H]2O)[C@@H](C)O)N(C)C1 [LINCOMYCIN] | Not Active | Not Active | Not Active | Not Active | Not Active | Not Active | Not Active | Not Active | Not Active | Not Active | Not Active | Not Active |  |
| NNc1ccccc1 [PHENYLHYDRAZINE] | Not Active | Not Active | Not Active | Not Active | Not Active | Not Active | Not Active | Not Active | Not Active | Not Active | Not Active | Not Active |  |
| NC(CO)(CO)CO [TROMETHAMINE] | Not Active | Not Active | Not Active | Not Active | Not Active | Not Active | Not Active | Not Active | Not Active | Not Active | Not Active | Not Active |  |
